Measurements published in US20100004459A1, “2-PHENYLNICOTINIC ACID DERIVATIVE” (NIPPON ZOKI PHARMACEUTICAL CO., LTD., priority 2006, published 2010).

Legend:
xanthine oxidase = target: T1, xanthine oxidase (Bos taurus, UniProt P80457); experiment: Test for xanthine oxidase inhibitory activity; assay type: biochemical; details: xanthine oxidase derived from milk (Sigma); substrate xanthine; uric acid production at OD 292 nm, 37° C.
T1 construct: derived from milk; manufactured by Sigma; purchased Sigma; host or cells: milk (natural source)
T1 sequence (P80457 whole entry): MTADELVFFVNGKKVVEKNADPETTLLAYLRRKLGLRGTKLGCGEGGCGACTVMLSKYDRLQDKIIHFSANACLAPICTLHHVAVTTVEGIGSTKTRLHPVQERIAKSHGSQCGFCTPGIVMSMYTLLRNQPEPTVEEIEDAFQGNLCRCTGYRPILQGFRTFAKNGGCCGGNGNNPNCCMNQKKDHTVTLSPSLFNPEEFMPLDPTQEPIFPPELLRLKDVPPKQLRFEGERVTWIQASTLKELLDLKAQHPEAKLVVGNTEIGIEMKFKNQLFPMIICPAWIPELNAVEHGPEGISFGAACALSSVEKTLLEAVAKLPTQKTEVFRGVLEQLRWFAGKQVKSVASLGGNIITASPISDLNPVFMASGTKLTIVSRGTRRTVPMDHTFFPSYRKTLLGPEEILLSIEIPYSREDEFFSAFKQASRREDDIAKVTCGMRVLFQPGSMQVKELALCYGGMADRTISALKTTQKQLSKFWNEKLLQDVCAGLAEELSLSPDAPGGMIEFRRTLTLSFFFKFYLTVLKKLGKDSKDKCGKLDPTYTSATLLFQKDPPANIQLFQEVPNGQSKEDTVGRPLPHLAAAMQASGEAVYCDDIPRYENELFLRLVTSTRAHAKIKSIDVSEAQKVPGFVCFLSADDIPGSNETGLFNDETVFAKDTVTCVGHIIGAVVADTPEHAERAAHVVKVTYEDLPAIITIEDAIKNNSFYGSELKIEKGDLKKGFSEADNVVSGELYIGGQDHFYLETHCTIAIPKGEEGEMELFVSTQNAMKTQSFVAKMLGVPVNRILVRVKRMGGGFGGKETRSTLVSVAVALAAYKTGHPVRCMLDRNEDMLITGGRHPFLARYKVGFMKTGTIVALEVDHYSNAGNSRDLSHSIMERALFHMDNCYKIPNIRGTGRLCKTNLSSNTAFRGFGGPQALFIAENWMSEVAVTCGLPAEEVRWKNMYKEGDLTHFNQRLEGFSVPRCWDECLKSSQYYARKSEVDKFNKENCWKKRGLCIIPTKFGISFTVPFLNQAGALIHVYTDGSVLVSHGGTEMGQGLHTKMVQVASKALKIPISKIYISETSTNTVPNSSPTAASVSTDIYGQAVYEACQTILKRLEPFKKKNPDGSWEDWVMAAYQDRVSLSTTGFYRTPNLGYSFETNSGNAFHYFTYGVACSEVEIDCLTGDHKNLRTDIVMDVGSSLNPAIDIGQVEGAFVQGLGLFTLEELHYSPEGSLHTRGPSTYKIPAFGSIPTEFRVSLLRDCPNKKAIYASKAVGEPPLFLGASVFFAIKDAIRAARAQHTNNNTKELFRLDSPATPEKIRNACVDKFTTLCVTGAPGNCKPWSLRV
Method: Evaluation of inhibitory activity of the present invention to xanthine oxidase was conducted using xanthine as a substrate by measuring the amount of uric acid produced by xanthine oxidase which is an oxidizing enzyme therefor. Thus, xanthine oxidase (0.01 unit/L, 20 μL/well; derived from milk; manufactured by Sigma), diethylenetriamine pentaacetate (0.01 mol/L, 20 μL/well), phosphate buffer (20 μL/well), distilled water (100 μL/well) and a diluted solution (20 μL/well) of a test substance were mixed in a 96-well quartz microplate. After preincubating for 5 minutes in a microplate spectrophotometer warmed at 37° C., xanthine (1 mmol/L, 20 μL/well) was added. The changes with elapse of time in OD 292 nm based on the production of uric acid was measured using a microplate spectrophotometer warmed at 37° C. whereby the initial reaction velocity was measured. Xanthine oxidase inhibitory activity was calculated by the following formula and concentration of the test substance for 50% suppression (IC50 value) was calculated.
Inhibition Rate(%)={[(Initial Reaction Velocity of the Reaction Control)-(Initial Reaction Velocity upon Addition of Test Substance)]/[Initial Reaction Velocity of the Reaction Control]}×100

[1] = tested on: model rats of fructose-loaded hypertriglyceridemia; experiment: Model rats of fructose-loaded hypertriglyceridemia: action for lowering of uric acid in serum; assay type: in vivo; details: Rattus norvegicus, po; male SD rats, 75% fructose solution for three days; 100 mg/kg orally once daily; serum 2 hours after final administration; read-out: Inhibition Rate (%) Action for lowering of uric acid
Method: (§1) The test was conducted according to a method of Kusama, et al. (Folia Pharmacologica Japonica, volume 92, pages 175 to 180, 1988). Thus, male rats of SD strain of 6 to 7 weeks age were made in free access to a 75% (w/v) D(−)-fructose solution for three days. During the period of fructose ingestion, a test substance (100 mg/kg) was suspended in 1% methyl cellulose and orally administered once daily. After 2 hours from the final administration, about 500 μL per rat of blood was collected using a hematocrit capillary from orbital venous plexus under anesthetization with ether and centrifuged (3000 rpm at 4° C. for 20 minutes) whereupon the serum was prepared.
(2) Action for Lowering of Uric Acid in Serum
Uric acid value in the serum was measured by a Uric acid C-Test Wako (manufactured by Wako Pure Chemical Industries, Ltd.) using the above serum and each uric acid lowering rate was determined by the following formula.
Uric Acid Lowering Rate(%)={[(Uric Acid Value of Control Animal)-(Uric Acid Value of Animals Administered with Test Substance)]/[Uric Acid Value of Control Animal]}×100

[2] = tested on: model rats of fructose-loaded hypertriglyceridemia; experiment: Model rats of fructose-loaded hypertriglyceridemia: action for lowering of triglyceride in serum; assay type: in vivo; details: Rattus norvegicus, po; male SD rats, 75% fructose solution for three days; 100 mg/kg orally once daily; serum 2 hours after final administration; read-out: Inhibition Rate (%) Action for lowering of triglyceride
Method: as §1
(1) Action for Lowering of Triglyceride in Serum
The triglyceride (TG) in the serum was measured by a Triglyceride E-Test Wako (manufactured by Wako Pure Chemical Industries, Ltd.) and each TG lowering rate was determined by the following formula.
TG Lowering Rate(%)={[(TG Value of Control Animal)−(TG Value of Animal Administered with Test Substance)]/[(TG Value of Control Animal)-(TG Value of Untreated Animal)]}×100

| Structure (SMILES) | melting point | IC50 (xanthine oxidase) | inhibition in vivo at 100 mg/kg [1] | inhibition in vivo at 100 mg/kg [2] |
| --- | --- | --- | --- | --- |
| COc1ccc(-c2ncccc2C(=O)O)cc1C#N [Example 43, 2-(3-Cyano-4-methoxyphenyl)nicotinic acid] | 254 to 255 °C |  |  |  |
| CC(C)COc1ccc(-c2ncccc2C(=O)O)cc1C#N [Example 44, 2-(3-Cyano-4-isobutoxyphenyl)nicotinic acid] | 178 to 179 °C | 91 nM |  |  |
| N#Cc1cc(-c2ncccc2C(=O)O)ccc1OCC1CC1 [Example 45, 2-(3-Cyano-4-cyclopropylmethoxyphenyl)nicotinic acid] | 203 to 204 °C |  |  |  |
| N#Cc1cc(-c2ncccc2C(=O)O)ccc1OCC1CCC1 [Example 46, 2-(3-Cyano-4-cyclobutylmethoxyphenyl)nicotinic acid] | 204 to 205 °C | 83 nM |  |  |
| N#Cc1cc(-c2ncccc2C(=O)O)ccc1OCCC1CCCCC1 [Example 48, 2-[3-Cyano-4-(2-cyclohexylethoxy)phenyl]nicotinic acid] | 171 to 172 °C | 38 nM |  |  |
| CCCCCCOc1ccc(-c2ncccc2C(=O)O)cc1C#N [Example 49, 2-(3-Cyano-4-hexyloxyphenyl)nicotinic acid] | 187 to 188 °C | 63 nM |  |  |
| N#Cc1cc(-c2ncccc2C(=O)O)ccc1OCc1ccc(C(F)(F)F)cc1 [Example 50, 2-[3-Cyano-4-(4-trifluoromethylbenzyloxy)phenyl]nicotinic acid] | 226 to 227 °C | 83 nM |  |  |
| COc1ccc(CCOc2ccc(-c3ncccc3C(=O)O)cc2C#N)cc1 [Example 53, 2-[3-Cyano-4-(4-methoxyphenethyloxy)phenyl]nicotinic acid] | 183 to 184 °C | 58 nM |  |  |
| N#Cc1cc(-c2ncccc2C(=O)O)ccc1OCCCc1ccccc1F [Example 60, 2-{3-Cyano-4-[3-(2-fluorophenyl)propoxy]phenyl}nicotinic acid] | 173 to 174 °C | 49 nM |  |  |
| N#Cc1cc(-c2ncccc2C(=O)O)ccc1OCCCc1ccc(F)cc1 [Example 61, 2-{3-Cyano-4-[3-(4-fluorophenyl)propoxy]phenyl}nicotinic acid] | 177 to 178 °C | 56 nM |  |  |
| N#Cc1cc(-c2ncccc2C(=O)O)ccc1OCCCCc1ccc(C(F)(F)F)cc1 [Example 63, 2-{3-Cyano-4-[4-(4-trifluoromethylphenyl)butoxy]phenyl}nicotinic acid] | 165 to 166 °C | 97 nM |  |  |
| N#Cc1cc(-c2ncccc2C(=O)O)ccc1OCCCCc1ccccc1F [Example 64, 2-{3-Cyano-4-[4-(2-fluorophenyl)butoxy]phenyl}nicotinic acid] | 151 to 152 °C | 33 nM |  |  |
| N#Cc1cc(-c2ncccc2C(=O)O)ccc1OCCCOc1ccc(OC(F)(F)F)cc1Cl [Example 69, 2-{4-[3-(2-Chloro-4-trifluoromethoxyphenoxy)propoxy]-3-cyanophenyl}nicotinic acid] | 159 to 160 °C | 58 nM |  |  |
| N#Cc1cc(-c2ncccc2C(=O)O)ccc1OCCCOc1ccc(Oc2ccccc2)cc1 [Example 71, 2-{3-Cyano-4-[3-(4-phenoxyphenoxy)propoxy]phenyl}nicotinic acid] | 149 to 150 °C | 90 nM |  |  |
| CC(C)(CCc1ccccc1)COc1ccc(-c2ncccc2C(=O)O)cc1C#N [Example 81, 2-[3-Cyano-4-(2,2-dimethyl-4-phenylbutoxy)phenyl]nicotinic acid] | 172 to 173 °C | 16 nM |  |  |
| CC(C)(C)c1cc(CCCCOc2ccc(-c3ncccc3C(=O)O)cc2C#N)cc(C(C)(C)C)c1O [Example 90, 2-{3-Cyano-4-[4-(3,5-di-tert-butyl-4-hydroxyphenyl)butoxy]phenyl}nicotinic acid] |  | 37 nM |  |  |
| N#Cc1cc(-c2ncccc2C(=O)O)ccc1OCCCCc1ccccc1C(F)(F)F [Example 126, 2-{3-Cyano-4-[4-(2-trifluoromethylphenyl)butoxy]phenyl}nicotinic acid] |  | 26 nM |  |  |
| COc1ccc(CCCCOc2ccc(-c3ncccc3C(=O)O)cc2C#N)cc1 [Example 134, 2-{3-Cyano-4-[4-(4-methoxyphenyl)butoxy]phenyl}nicotinic acid] |  | 18 nM |  |  |

More lines, main results first:

| melting point | IC50 (xanthine oxidase) | Structure (SMILES) | inhibition in vivo at 100 mg/kg [1] | inhibition in vivo at 100 mg/kg [2] |
| --- | --- | --- | --- | --- |
| 155 to 156 °C | 21 nM | CCCCC(C)(C)COc1ccc(-c2ncccc2C(=O)O)cc1C#N [Example 73, 2-[3-Cyano-4-(2,2-dimethylhexyloxy)phenyl]nicotinic acid] |  |  |
| 196 to 197 °C | 17 nM | CCC1(COc2ccc(-c3ncccc3C(=O)O)cc2C#N)CCCC1 [Example 76, 2-[3-Cyano-4-(1-ethylcyclopentylmethoxy)phenyl]nicotinic acid] |  |  |
| 196 to 197 °C | 38 nM | CC(C)(COc1ccc(-c2ncccc2C(=O)O)cc1C#N)Cc1ccccc1 [Example 80, 2-[3-Cyano-4-(2,2-dimethyl-3-phenylpropoxy)phenyl]nicotinic acid] |  |  |
|  | 99 nM | CS(=O)(=O)Oc1ccc(CCOc2ccc(-c3ncccc3C(=O)O)cc2C#N)cc1 [Example 86, 2-{3-Cyano-4-[2-(4-methanesulfonyloxyphenyl)ethoxy]phenyl}nicotinic acid] |  |  |
|  | 47 nM | CC(C)(C)c1cc(CCCOc2ccc(-c3ncccc3C(=O)O)cc2C#N)cc(C(C)(C)C)c1O [Example 88] |  |  |
|  | 65 nM | N#Cc1cc(-c2ncccc2C(=O)O)ccc1OCCc1ccccc1Cl [Example 100, 2-{4-[2-(2-Chlorophenyl)ethoxy]-3-cyanophenyl}nicotinic acid] | 58.2% | 40.8% |
|  | 13 nM | COc1ccc(CC(C)(C)COc2ccc(-c3ncccc3C(=O)O)cc2C#N)cc1 [Example 104, 2-{3-Cyano-4-[2,2-dimethyl-3-(4-methoxyphenyl)propoxy]phenyl}nicotinic acid] |  |  |
|  | 25 nM | CC(C)(COc1ccc(-c2ncccc2C(=O)O)cc1C#N)Cc1ccc(C(F)(F)F)cc1 [Example 106, 2-{3-Cyano-4-[2,2-dimethyl-3-(4-trifluoromethylphenyl)propoxy]phenyl}nicotinic acid] |  |  |
|  | 28 nM | COc1ccccc1CC(C)(C)COc1ccc(-c2ncccc2C(=O)O)cc1C#N [Example 112, 2-{3-Cyano-4-[2,2-dimethyl-3-(2-methoxyphenyl)propoxy]phenyl}nicotinic acid] |  |  |
|  | 52 nM | N#Cc1cc(-c2ncccc2C(=O)O)ccc1OCCCc1ccccc1 [Example 116, 2-[3-Cyano-4-(3-phenylpropoxy)phenyl]nicotinic acid] |  |  |
|  | 12 nM | N#Cc1cc(-c2ncccc2C(=O)O)ccc1OCCCc1ccccc1C(F)(F)F [Example 118, 2-{3-Cyano-4-[3-(2-trifluoromethylphenyl)propoxy]phenyl}nicotinic acid] |  |  |
|  | 35 nM | COc1ccc(CCCOc2ccc(-c3ncccc3C(=O)O)cc2C#N)cc1 [Example 120, 2-{3-Cyano-4-[3-(4-methoxyphenyl)propoxy]phenyl}nicotinic acid] |  |  |
|  | 91 nM | COc1ccc(C(C)(C)COc2ccc(-c3ncccc3C(=O)O)cc2C#N)cc1 [Example 122, 2-{3-Cyano-4-[2-methyl-2-(4-methoxyphenyl)propoxy]phenyl}nicotinic acid] |  |  |
|  | 72 nM | Cc1ccc(C)c(CCOc2ccc(-c3ncccc3C(=O)O)cc2C#N)c1 [Example 130, 2-[3-Cyano-4-(2,5-dimethylphenethyloxy)phenyl]nicotinic acid] |  |  |
|  | 15 nM | CC(C)(COc1ccc(-c2ncccc2C(=O)O)cc1C#N)Cc1ccccc1C(F)(F)F [Example 132, 2-{3-Cyano-4-[2,2-dimethyl-3-(2-trifluoromethylphenyl)propoxy]phenyl}nicotinic acid] |  |  |
|  | 34 nM | N#Cc1cc(-c2ncccc2C(=O)O)ccc1N1CCCCCC1 [Example 138, 2-(4-Azepan-1-yl-3-cyanophenyl)nicotinic acid] |  |  |
|  | 40 nM | CC(C)(C)COc1ccc(-c2ncc(F)cc2C(=O)O)cc1C#N [Example 140, 2-[3-Cyano-4-(2,2-dimethylpropoxy)phenyl]-5-fluoronicotinic acid] |  |  |
